Laboratory results from patent US12558432B2, “Biocompatible polymeric drug carriers for delivering active agents” (CIS BIOPHARMA AG, priority 2019, dated 2026).

Tested on: cell culture
Experiment: cell culture experiments (toxic effects)
Assay type: cell-based
Conditions: at concentrations of up to 5 mM

SMILES: C=CC(=O)NCCCC[C@H](N)C(=O)O [acryloyl-lysine, (S)-6-acrylamido-2-aminohexanoic acid]
- toxic effects in cell culture experiments: do not exhibit any toxic effects
